Assay results as given in patent US9981972B2, “N-hydroxy bicyclic hydantoin carbamates as tools for identification of serine hydrolase targets” (ABIDE THERAPEUTICS, INC., priority 2014, dated 2018).

Experiments:
Experiment in all cases: Gel-based competitive ABPP in vitro, mouse brain membrane proteome
Format in all cases: biochemical
LYPLA1 = molecular target: T1, LYPLA1 (Mus musculus, UniProt P97823); settings: 10 μM, mouse brain (mem) proteome
T1 construct: a complex proteome endogenously expressing LYPLA1/2 was incubated with test compound; from tissue; host or cells: mouse brain, membrane fraction
T1 sequence (P97823 whole entry): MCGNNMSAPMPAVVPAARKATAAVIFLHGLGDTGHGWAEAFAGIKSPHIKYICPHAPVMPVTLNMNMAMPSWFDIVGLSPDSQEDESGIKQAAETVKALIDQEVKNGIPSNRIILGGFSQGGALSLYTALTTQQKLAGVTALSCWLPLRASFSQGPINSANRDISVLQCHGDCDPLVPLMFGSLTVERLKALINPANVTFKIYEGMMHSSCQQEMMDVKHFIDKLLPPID
Procedure, shortened: (§1)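 Mouse brain membrane proteome (1 mg/mL in DPBS) was treated with compound (0.1-100 μM) for 30 min at 37 °C, then labeled with FP-Rh (2 μM final, 30 min, 25 °C). Bands were resolved by SDS-PAGE and scanned in-gel, with inhibition taken from band optical density versus DMSO. Targets counted as active or anti-targets at ≥50% inhibition.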

LYPLA2 = molecular target: T2, LYPLA2 (Mus musculus, UniProt Q9WTL7); settings: 10 μM, mouse brain (mem) proteome
T2 construct: a complex proteome endogenously expressing LYPLA1/2 was incubated with test compound; from tissue; host or cells: mouse brain, membrane fraction
T2 sequence (Q9WTL7 whole entry): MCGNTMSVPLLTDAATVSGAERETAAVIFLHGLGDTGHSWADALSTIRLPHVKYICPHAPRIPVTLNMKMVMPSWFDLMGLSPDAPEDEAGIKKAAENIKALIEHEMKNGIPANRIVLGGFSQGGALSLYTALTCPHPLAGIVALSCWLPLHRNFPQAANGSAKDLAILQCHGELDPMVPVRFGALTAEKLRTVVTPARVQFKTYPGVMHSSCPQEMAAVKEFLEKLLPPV
Procedure, shortened: as §1

ABHD12 = molecular target: T3, ABHD12 (Mus musculus, UniProt Q99LR1); settings: mouse brain (mem) proteome
T3 construct: from tissue; host or cells: mouse brain, membrane fraction
T3 sequence (Q99LR1 1-398): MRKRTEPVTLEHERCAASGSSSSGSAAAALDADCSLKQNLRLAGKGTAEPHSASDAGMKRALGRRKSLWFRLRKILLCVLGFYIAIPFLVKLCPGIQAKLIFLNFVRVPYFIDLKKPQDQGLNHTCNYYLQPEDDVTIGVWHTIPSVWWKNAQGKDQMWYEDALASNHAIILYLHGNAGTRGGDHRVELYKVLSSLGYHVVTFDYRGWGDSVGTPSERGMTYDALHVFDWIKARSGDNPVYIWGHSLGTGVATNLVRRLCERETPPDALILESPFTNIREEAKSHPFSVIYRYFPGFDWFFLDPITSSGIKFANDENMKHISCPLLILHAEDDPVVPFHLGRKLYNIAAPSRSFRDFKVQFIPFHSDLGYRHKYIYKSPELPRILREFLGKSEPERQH
Method: (§2) Assay Overview: The purpose of this assay was to determine whether test compounds can inhibit LYPLA1 and LYPLA2 in a complex proteomic lysate and to assess anti-target inhibition using a competitive activity-based proteomic profiling (ABPP) assay. In this assay, a complex proteome endogenously expressing LYPLA1/2 was incubated with test compound followed by reaction with a rhodamine-conjugated fluorophosphonate (FP-Rh) serine-hydrolase specific activity-based probe. The reaction products were separated by SDS-PAGE and visualized in-gel using a flatbed fluorescence scanner. The percentage activity remaining was determined by measuring the integrated optical density of the bands. […] Percent inhibition was calculated relative to a DMSO (no compound) control.
(§3) Protocol Summary: Mouse brain membrane proteome (50 μL reaction volume, 1 mg/mL in DPBS) was treated with 0.1-100 μM test compound (1 μL of a 50× stock in DMSO) for 30 minutes at 37° C. FP-Rh (1 μL of 50× stock in DMSO, Thermo #88318) was added to a final concentration of 2 μM. The reactions were incubated for 30 minutes at 25° C., quenched with 16 μL 4×SDS-PAGE loading buffer (reducing), separated by SDS-PAGE and visualized by in-gel fluorescent scanning. The percentage activity remaining was determined by measuring the integrated optical density of the bands relative to a DMSO-only (no compound) control. Assay Cutoff: Compounds with ≥50% inhibition of targets at 1 μM test compound concentration were considered active.

ABHD3 = molecular target: T4, ABHD3 (Mus musculus, UniProt Q91ZH7); settings: mouse brain (mem) proteome
T4 construct: from tissue; host or cells: mouse brain, membrane fraction
T4 sequence (Q91ZH7 1-411): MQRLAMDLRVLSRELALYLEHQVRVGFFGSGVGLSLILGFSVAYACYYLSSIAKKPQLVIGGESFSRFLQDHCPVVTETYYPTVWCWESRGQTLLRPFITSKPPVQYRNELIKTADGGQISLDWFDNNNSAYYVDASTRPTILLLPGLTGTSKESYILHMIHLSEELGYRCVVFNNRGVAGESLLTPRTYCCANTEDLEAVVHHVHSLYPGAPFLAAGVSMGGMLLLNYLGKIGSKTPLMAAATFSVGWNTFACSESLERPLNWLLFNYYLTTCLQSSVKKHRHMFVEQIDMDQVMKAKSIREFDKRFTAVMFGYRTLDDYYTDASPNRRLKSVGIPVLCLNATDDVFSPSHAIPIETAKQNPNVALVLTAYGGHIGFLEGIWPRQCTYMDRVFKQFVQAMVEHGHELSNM
Method: as §2, §3

PLA2G7 = molecular target: T5, PLA2G7 (Mus musculus, UniProt Q60963); settings: mouse brain (mem) proteome
T5 construct: from tissue; host or cells: mouse brain, membrane fraction
T5 sequence (Q60963 22-440): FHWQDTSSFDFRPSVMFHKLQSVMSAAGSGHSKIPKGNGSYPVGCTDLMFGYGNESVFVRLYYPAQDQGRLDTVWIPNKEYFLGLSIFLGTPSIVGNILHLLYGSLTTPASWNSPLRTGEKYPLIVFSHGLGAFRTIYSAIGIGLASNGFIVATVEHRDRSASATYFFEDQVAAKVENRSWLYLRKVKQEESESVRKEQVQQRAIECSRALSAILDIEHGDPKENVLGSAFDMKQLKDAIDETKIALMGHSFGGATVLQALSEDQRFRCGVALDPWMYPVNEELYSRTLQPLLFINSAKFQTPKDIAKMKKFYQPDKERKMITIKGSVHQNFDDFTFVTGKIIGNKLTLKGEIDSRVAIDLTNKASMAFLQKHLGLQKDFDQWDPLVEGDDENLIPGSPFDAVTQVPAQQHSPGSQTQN
Method: as §2, §3

| LYPLA1 in vitro enzyme activity, % @ 10 μM (LYPLA1) [% @] | LYPLA2 in vitro enzyme activity, % @ 10 μM (LYPLA2) [% @] | ABHD12 in vitro enzyme activity, % @ 10 μM (ABHD12) [% @] | ABHD3 in vitro enzyme activity, % @ 10 μM (ABHD3) [% @] | PLA2G7 in vitro enzyme activity, % @ 1 μM (PLA2G7) [% @] | PLA2G7 in vitro enzyme activity, % @ 10 μM (PLA2G7) [% @] | Structure (SMILES) |
| --- | --- | --- | --- | --- | --- | --- |
| 50 | 100 | 0 | 0 | 100 |  | COc1ccc(N2CCN(C(=O)ON3C(=O)[C@@H]4CN(CC5CCN(Cc6ccccc6)CC5)CCN4C3=O)CC2)cc1 [Compound 42, (S)-7-((1-benzylpiperidin-4-yl)methyl)-1,3-dioxo-hexahydroimidazo[1,5-a]pyrazin-2(3H)-yl 4-(4-methoxyphenyl)piperazine-1-carboxylate] |
| 0 | 0 | 0 | 0 | 100 |  | C#CCOc1ccc(N2CCN(C(=O)ON3C(=O)[C@H]4CN(CC5CCN(Cc6ccccc6)CC5)CCN4C3=O)CC2)cc1 [Compound 47, (R)-7-((1-benzylpiperidin-4-yl)methyl)-1,3-dioxo-hexahydroimidazo[1,5-a]pyrazin-2(3H)-yl 4-(4-(prop-2-ynyloxy)phenyl)piperazine-1-carboxylate] |

Continued, compound first:

| Structure (SMILES) | LYPLA1 in vitro enzyme activity, % @ 10 μM (LYPLA1) [% @] | LYPLA2 in vitro enzyme activity, % @ 10 μM (LYPLA2) [% @] | ABHD12 in vitro enzyme activity, % @ 10 μM (ABHD12) [% @] | ABHD3 in vitro enzyme activity, % @ 10 μM (ABHD3) [% @] | PLA2G7 in vitro enzyme activity, % @ 1 μM (PLA2G7) [% @] | PLA2G7 in vitro enzyme activity, % @ 10 μM (PLA2G7) [% @] |
| --- | --- | --- | --- | --- | --- | --- |
| C#CCOc1ccc(N2CCN(C(=O)ON3C(=O)[C@@H]4CN(Cc5ccc(Oc6ccccc6)cc5)CCN4C3=O)CC2)cc1 [Compound 44, (S)-1,3-dioxo-7-(4-phenoxybenzyl)-hexahydroimidazo[1,5-a]pyrazin-2(3H)-yl 4-(4-(prop-2-ynyloxy)phenyl)piperazine-1-carboxylate] | 0 | 0 | 0 | 0 | 100 |  |
| O=C(ON1C(=O)[C@@H]2CN(Cc3ccc(Br)cc3)CCN2C1=O)N1CCC(CCc2ccc(Cl)cc2)CC1 [Compound 40, (S)-7-(4-bromobenzyl)-1,3-dioxohexahydroimidazo[1,5-a]pyrazin-2(3H)-yl4-(4-chlorophenethyl)piperidine-1-carboxylate] | 50 | 50 | 0 | 0 |  | 100 |
| O=C(ON1C(=O)[C@@H]2CN(C(=O)N3CCOCC3)CCN2C1=O)N1CCN(CCc2ccc(Cl)cc2)CC1 [Compound 41, (S)-7-(morpholine-4-carbonyl)-1,3-dioxo-hexahydroimidazo[1,5-a]pyrazin-2(3H)-yl 4-(4-chlorophenethyl)piperazine-1-carboxylate] | 100 | 100 | 0 | 0 |  | 0 |
